The values that follow are results of earlier work, collected in patent US5607691A, “Compositions and methods for enhanced drug delivery” (priority 1995, dated 1997).

The conditions of data set [1]: in vivo; cited from earlier work.
For data set [2] the following is noted: man, incomplete and variable, averaging; cited from earlier work.
For data set [3] the following is noted: human or mouse skin; cited from earlier work.

`O=c1[nH]cc(F)c(=O)[nH]1` [fluorouracil, 5-fluoro-2,4 (1H,3H)-pyrimidinedione]: the “passage across blood-brain barrier and placenta” value in data set [1] is reported as “diffuses readily across the blood-brain barrier”.

On to `O.Sc1ncnc2nc[nH]c12` [mercaptopurine, 1,7-dihydro-6H-purine-6-thione monohydrate], for which the “absorption of an oral dose” value in data set [2] is on record as “approximately 50 % of the administered dose”.

Cytochrome c: the “iontophoretic transport across skin” value in data set [3] is “can be iontophoretically transported readily across human or mouse skin”.
